For this experiment, the target named is T1, DLK (Homo sapiens, UniProt Q12852).
T1 construct: N-terminally GST-tagged DLK (catalytic domain amino acid 1-520) (Carna Bioscience); GST (N); purchased Carna Bioscience
T1 sequence (Q12852 1-520): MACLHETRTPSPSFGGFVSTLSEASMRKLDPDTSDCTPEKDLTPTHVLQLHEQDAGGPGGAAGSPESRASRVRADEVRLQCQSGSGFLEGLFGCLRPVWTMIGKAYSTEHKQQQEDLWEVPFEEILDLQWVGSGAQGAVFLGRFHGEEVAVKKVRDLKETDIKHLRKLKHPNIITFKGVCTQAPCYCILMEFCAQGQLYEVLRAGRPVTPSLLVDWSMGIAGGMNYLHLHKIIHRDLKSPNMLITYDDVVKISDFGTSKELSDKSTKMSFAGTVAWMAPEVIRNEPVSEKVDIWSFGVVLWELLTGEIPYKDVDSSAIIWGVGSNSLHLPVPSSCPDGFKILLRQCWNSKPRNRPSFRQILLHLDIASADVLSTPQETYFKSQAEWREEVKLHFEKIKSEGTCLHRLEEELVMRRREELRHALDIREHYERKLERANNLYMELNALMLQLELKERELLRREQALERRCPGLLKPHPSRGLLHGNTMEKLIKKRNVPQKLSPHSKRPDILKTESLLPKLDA
Kind of experiment: DLK TR-FRET assay. Conditions: 5 nM GST-tagged DLK (catalytic domain amino acid 1-520), 40 nM HIS-tagged MKK4 K131M substrate, 30 μM ATP, 60 minutes. The class given is biochemical. The method, then:
DLK TR-FRET assay: DLK kinase reactions (20 μL) containing 5 nM N-terminally GST-tagged DLK (catalytic domain amino acid 1-520) (Carna Bioscience), 40 nM N-terminally HIS-tagged MKK4 K131M substrate, and 30 μM ATP in kinase reaction buffer (50 mM HEPES, pH 7.5, 0.01% Triton X-100, 0.01% Bovine γ-Globulins, 2 mM DTT, 10 mM MgCl2 and 1 mM EGTA), and testing compound 1:3 serial diluted starting at 20 uM were incubated at ambient temperature for 60 minutes in 384 well OptiPlate (Perkin Elmer). To quench kinase reactions and detect phosphorylated MKK4, 15 μL of TR-FRET antibody mixture containing 2 nM anti-phosphorylated MKK4 labeled with Europium cryptate (Cisbio) and 23 nM anti-HIS labeled with D2 (Cisbio) in detection buffer (25 mM Tris pH 7.5, 100 mM NaCl, 100 mM EDTA, 0.01% Tween-20, and 200 mM KF) was added to the reaction mixture. The detection mixture was incubated for 3 hours at ambient temperature and the TR-FRET was detected with an EnVision multilabel plate reader (Perkin-Elmer) using the LANCE/DELFIA Dual Enh label from Perkin-Elmer (excitation filter: UV2 (TRF) 320 and emission filters: APC 665 and Europium 615).
For orientation: Ki means a dissociation constant, usually derived from enzyme kinetics or from competition with a known ligand. For `N#Cc1ccnc(Nc2cc(C3(C#N)CCOCC3)cc(N3CC4CC(F)(F)C4C3)n2)c1` (stereo not drawn) [Example 69, 2-[4-(4-Cyano-tetrahydro-pyran-4-yl)-6-(6,6-difluoro-3-aza-bicyclo[3.2.0]hept-3-yl)-pyridin-2-ylamino]-isonicotinonitrile], the affinity, expressed as Ki, was 4 nM. That is a single-digit nanomolar value.

On to `N#Cc1ccnc(Nc2cc(C3CCN(C4COC4)CC3)cc(N3CCCC3=O)n2)c1` [Example 79, 2-[1′-Oxetan-3-yl-6-(2-oxo-pyrrolidin-1-yl)-1′,2′,3′,4′,5′,6′-hexahydro-[4,4′]bipyridinyl-2-ylamino]-isonicotinonitrile], for which the Ki amounted to 35 nM.

`COC1CCN(c2cc(C3CCN(C4COC4)CC3)cc(Nc3cc(C#N)ccn3)n2)C1` (stereo not drawn) [Example 88, 2-[6-(3-Methoxy-pyrrolidin-1-yl)-1-oxetan-3-yl-1′,2′,3′,4′,5′,6′-hexahydro-[4,4′]bipyridinyl-2-ylamino]-isonicotinonitrile] registered an inhibition constant Ki of 2.8 nM. Compared with the last compound, the Ki is about 12-fold lower.

Compound `Cc1cc(C2(C#N)CCOCC2)cc(Nc2cc(C#N)ccn2)n1` [Example 64, 2-[4-(4-Cyano-tetrahydro-pyran-4-yl)-6-methyl-pyridin-2-ylamino]-isonicotinonitrile] registered a Ki of 170 nM.

`C[C@@H]1CCCN1c1cc(C2(C#N)CCN(C)CC2)cc(Nc2cc(C#N)ccn2)n1` [Example 33, 2′-(4-Cyano-pyridin-2-ylamino)-1-methyl-6′-((R)-2-methyl-pyrrolidin-1-yl)-2,3,5,6-tetrahydro-1H-[4,4′]bipyridinyl-4-carbonitrile]: the affinity, expressed as Ki, was 0.17 nM.

Turning to `CS(=O)(=O)N1CCC(c2ccnc(Nc3cc(C#N)ccn3)c2)CC1` [Example 128, 2-(1′-Methanesulfonyl-1′,2′,3′,4′,5′,6′-hexahydro-[4,4′]bipyridinyl-2-ylamino)-isonicotinonitrile], the inhibitory constant (Ki) worked out at 450 nM.

On to `O=C1CCCN1c1cc(C2CCN(C3COC3)CC2)cc(Nc2cc(C(F)F)ccn2)n1` [Example 42, 1-[6-(4-Difluoromethyl-pyridin-2-ylamino)-1′-oxetan-3-yl-1′,2′,3′,4′,5′,6′-hexahydro-[4,4′]bipyridinyl-2-yl]-pyrrolidin-2-one], for which the Ki amounted to 6.4 nM.

`N#Cc1ccnc(Nc2cc(C3CCN(C4COC4)CC3)cc(N3CC4CC(F)(F)C4C3)n2)c1` (stereo not drawn) [Example 97, 2-[6-(6,6-Difluoro-3-aza-bicyclo[3.2.0]hept-3-yl)-1′-oxetan-3-yl-1′,2′,3′,4′,5′,6′-hexahydro-[4,4′]bipyridinyl-2-ylamino]-isonicotinonitrile]: the affinity corresponds to a Ki of 0.6 nM.

Turning to `CC(=O)N1CCC(c2cc(Nc3cc(C)ccn3)nc(-c3cnn(C)c3)c2)CC1` [Example 134, 1-[2′-(1-Methyl-1H-pyrazol-4-yl)-6′-(4-methyl-pyridin-2-ylamino)-3,4,5,6-tetrahydro-2H-[4,4′]bipyridinyl-1-yl]-ethanone], the Ki amounted to 30 nM. This Ki is about 50-fold higher than that of the compound before.

`FC(F)c1ccnc(Nc2cc(C3CN(CC(F)(F)F)C3)cc(Cl)n2)c1` [Example 20, {6-Chloro-4-[1-(2,2,2-trifluoro-ethyl)-azetidin-3-yl]-pyridin-2-yl}-(4-difluoromethyl-pyridin-2-yl)-amine] gave a Ki of 110 nM.

In turn, `N#Cc1ccnc(Nc2cc(C3(C#N)CCNCC3)cc(N3CCC3)n2)c1` [Example 38, 6′-Azetidin-1-yl-2′-(4-cyano-pyridin-2-ylamino)-2,3,5,6-tetrahydro-1H-[4,4′]bipyridinyl-4-carbonitrile] showed an inhibition constant (Ki) of 2.2 nM.

`N#Cc1ccnc(Nc2cc(C3CCN(C4COC4)CC3)cc(N3CCC3)n2)c1` [Example 105, 2-(6-Azetidin-1-yl-1′-oxetan-3-yl-1′,2′,3′,4′,5′,6′-hexahydro-[4,4′]bipyridinyl-2-ylamino)-isonicotinonitrile] returned an inhibitory constant (Ki) of 7 nM.

As for `CC(=O)N1CCC(c2ccnc(Nc3cc(C#N)ccn3)c2)CC1` [Example 129, 2-(1′-Acetyl-1′,2′,3′,4′,5′,6′-hexahydro-[4,4′]bipyridinyl-2-ylamino)-isonicotinonitrile], the inhibitory constant (Ki) came to 510 nM. This Ki lies about 73-fold higher than the previous one.

With `N#CC1(c2cc(Nc3cc(C(F)F)ccn3)nc(N3CC(F)C3)c2)CCOCC1` [Example 55, 4-[2-(4-Difluoromethyl-pyridin-2-ylamino)-6-(3-fluoro-azetidin-1-yl)-pyridin-4-yl]-tetrahydro-pyran-4-carbonitrile], the affinity corresponds to a Ki of 8.9 nM.

The compound `FC(F)(F)c1ccnc(Nc2cc(C3CCN(C4COC4)CC3)ccn2)c1` [Example 120, (1′-Oxetan-3-yl-1′,2′,3′,4′,5′,6′-hexahydro-[4,4′]bipyridinyl-2-yl)-(4-trifluoromethyl-pyridin-2-yl)-amine] displayed an inhibitory constant (Ki) of 170 nM.

`N#Cc1ccnc(Nc2cc(C3CCOCC3)cc(N3CC4CC3C4)n2)c1` [Example 81, 2-[6-(2-Aza-bicyclo[2.1.1]hex-2-yl)-4-(tetrahydro-pyran-4-yl)-pyridin-2-ylamino]-isonicotinonitrile] had a Ki of 11.4 nM.

Compound `N#Cc1ccnc(Nc2cc(C3(C#N)CCOCC3)cc(C3CC3)n2)c1` [Example 63, 2-[4-(4-Cyano-tetrahydro-pyran-4-yl)-6-cyclopropyl-pyridin-2-ylamino]-isonicotinonitrile] yielded an inhibitory constant (Ki) of 8.6 nM.

For the compound `FC1CN(c2cc(C3CCN(C4COC4)CC3)cc(Nc3cc(C(F)F)ccn3)n2)C1` [Example 44, (4-Difluoromethyl-pyridin-2-yl)-[6-(3-fluoro-azetidin-1-yl)-1′-oxetan-3-yl-1′,2′,3′,4′,5′,6′-hexahydro-[4,4′]bipyridinyl-2-yl]-amine], the Ki turned out to be 6.8 nM. This Ki and that of the compound before are within 1.5-fold of each other.

`O=C([C@@H]1CCCCN1)N1CCC(c2ccnc(Nc3ccccn3)c2)CC1` [Example 146, (S)-piperidin-2-yl(4-(2-(pyridin-2-ylamino)pyridin-4-yl)piperidin-1-yl)methanone] had a Ki of 2100 nM. This Ki lies about 310-fold higher than the previous one.

For `C[C@@H]1CCCN1c1cc(C2CCOCC2)cc(Nc2cc(C#N)ccn2)n1` [Example 123, 2-[6-((R)-2-Methyl-pyrrolidin-1-yl)-4-(tetrahydro-pyran-4-yl)-pyridin-2-ylamino]-isonicotinonitrile], the Ki stood at 0.2 nM.

In turn, `CC1CCCN1c1cc(C2CCN(C(=O)c3cn(C)cn3)C2)cc(Nc2cc(C(F)(F)F)ccn2)n1` (stereo not drawn) [Example 133, (1-Methyl-1H-imidazol-4-yl)-{3-[2-(2-methyl-pyrrolidin-1-yl)-6-(4-trifluoromethyl-pyridin-2-ylamino)-pyridin-4-yl]-pyrrolidin-1-yl}-methanone] gave a Ki of 0.66 nM.

Turning to `N#Cc1ccnc(Nc2cc(C3CCN(C4COC4)CC3)cc(N3CC(F)C3)n2)c1` [Example 91, 2-[6-(3-Fluoro-azetidin-1-yl)-1′-oxetan-3-yl-1′,2′,3′,4′,5′,6′-hexahydro-[4,4′]bipyridinyl-2-ylamino]-isonicotinonitrile], the Ki was determined as 6.7 nM.

As to `CC(=O)N1CCC(c2cc(Nc3cc(C(F)(F)F)ccn3)nc(N3CCC[C@H]3C)c2)CC1` [Example 141, 1-[2′-((R)-2-Methyl-pyrrolidin-1-yl)-6′-(4-trifluoromethyl-pyridin-2-ylamino)-3,4,5,6-tetrahydro-2H-[4,4′]bipyridinyl-1-yl]-ethanone], the Ki turned out to be 2 nM.

The compound `N#Cc1ccnc(Nc2cc(C3CCN(C4COC4)CC3)cc(N3CC4CC3C4)n2)c1` [Example 90, 2-[6-(2-Aza-bicyclo[2.1.1]hex-2-yl)-1′-oxetan-3-yl-1′,2′,3′,4′,5′,6′-hexahydro-[4,4′]bipyridinyl-2-ylamino]-isonicotinonitrile] registered a Ki of 1.9 nM.

For the origin of these results see patent publication US9399636B2, “Substituted dipyridylamines and uses thereof” (Genentech, Inc., priority 2012, dated 2016).
